Molecular target: GST tagged truncated human mutant G2019S LRRK2 (Homo sapiens (Human), UniProt Q5S007, G2019S)
Assay: LRRK2 Km ATP LanthaScreen Assay
Format: biochemical
Conditions: 134 μM ATP (Km ATP), LRRKtide substrate, negative log of mean IC50 (molar); for IC50: read-out: LRRK2 pIC50 (converted)
Method: Unless otherwise noted, all reactions are magnetically stirred. Unless otherwise noted, when diethyl ether is used in the experiments described below, it is Fisher ACS certified material and is stabilized with BHT. Unless otherwise noted, “concentrated” and/or “solvent removed under reduced pressure” means evaporating the solvent from a solution or mixture using a rotary evaporator or vacuum pump. Unless otherwise noted, flash chromatography is carried out on a Teledyne Isco (Lincoln, NE), Analogix (Burlington, WI), or Biotage (Stockholm, SWE) automated chromatography system using a commercially available cartridge as the column. Columns may be purchased from Teledyne Isco, Analogix, Biotage, Varian (Palo Alto, CA), or Supelco (Bellefonte, PA) and are usually filled with silica gel as the stationary phase. Reversed phase preparative HPLC conditions, where used, can be found at the end of each experimental section. Aqueous solutions were concentrated on a Genevac (Ipswich, ENG) or by freeze-drying/lyophilization. Unless otherwise noted, all LRRK2 pIC50 data presented in tables refers to the LRRK2 G2019S Km ATP LanthaScreen™ assay (Life Technologies Corp., Carlsbad, CA) that is described in the Biological Assay section.
Biological Assay: LRRK2 Km ATP LanthaScreen™ Assay
Compound potency against LRRK2 kinase activity was determined using LanthaScreen™ technology from Life Technologies Corporation (Carlsbad, CA) using a GST20 tagged truncated human mutant G2019S LRRK2 in the presence of the fluorescein-labeled peptide substrate LRRKtide® (LRRK2 phosphorylated ezrin/radixin/moesin (ERM)), also from Life Technologies. The data presented for the Km ATP LanthaScreen™ Assay represents mean IC50 values based on several test results and may have reasonable deviations depending on the specific conditions and reagents used. Km is the Michaelis constant of an enzyme and is defined as the concentration of native substrate (ATP for a kinase) which permits the enzyme to achieve half Vmax (Vmax=rate of reaction when the enzyme is saturated with substrate). IC50 (half-maximal inhibitory concentration) represents the concentration of inhibitor required to inhibit LRRK2 kinase activity by 50%. Assays were performed in the presence of 134 μM ATP (Km ATP). Upon completion, the assay was stopped, and phosphorylated substrate detected with a terbium (Tb)-labeled anti-pERM antibody (cat. no. PV4898). The compound dose response was prepared by diluting a 10 mM stock of compound to a maximum concentration of 9.99 μM in 100% DMSO, followed by custom fold serial dilution in DMSO nine times. 20 nL of each dilution was spotted via a Labcyte Echo onto a 384-well black-sided plate (Corning 3575) followed by 15 μL of a 1.25 nM enzyme solution in 1× assay buffer (50 mM Tris pH 8.5, 10 mM MgCl2, 0.01% Brij-35, 1 mM EGTA, 2 mM dithiothreitol, 0.05 mM sodium orthovanadate). Following a 15-min incubation period at rt, the kinase reaction was started with the addition of 5 μL of 400 nM fluorescein-labeled LRRKtide® (LRRK2 phosphorylated ezrin/radixin/moesin (ERM)) peptide substrate and 134 μM ATP solution in 1× assay buffer. The reaction was allowed to progress at ambient temperature for 90 min. The reaction was then stopped by the addition of 20 μL of TR-FRET Dilution Buffer (Life Technologies, Carlsbad, CA) containing 2 nM Tb-labeled anti-phospho LRRKtide® (LRRK2 phosphorylated ezrin/radixin/moesin (ERM)) antibody and 10 mM EDTA (Life Technologies, Carlsbad, CA). After an incubation period of 1 h at rt, the plate was read on an EnVision® multimode plate reader (Perkin Elmer, Waltham, MA) with an excitation wavelength of 337 nm (Laser) and a reading emission at both 520 and 495 nm. Compound IC50 values were interpolated from nonlinear regression best-fits of the log of the final compound concentration, plotted as a function of the 520/495-nm emission ratio using activity base “Abase”). Abase uses a 4 parameter (4P) logistic fit based on the Levenberg-Marquardt algorithm. […]

Sequence of GST tagged truncated human mutant G2019S LRRK2 (Q5S007 970-2527 G2019S): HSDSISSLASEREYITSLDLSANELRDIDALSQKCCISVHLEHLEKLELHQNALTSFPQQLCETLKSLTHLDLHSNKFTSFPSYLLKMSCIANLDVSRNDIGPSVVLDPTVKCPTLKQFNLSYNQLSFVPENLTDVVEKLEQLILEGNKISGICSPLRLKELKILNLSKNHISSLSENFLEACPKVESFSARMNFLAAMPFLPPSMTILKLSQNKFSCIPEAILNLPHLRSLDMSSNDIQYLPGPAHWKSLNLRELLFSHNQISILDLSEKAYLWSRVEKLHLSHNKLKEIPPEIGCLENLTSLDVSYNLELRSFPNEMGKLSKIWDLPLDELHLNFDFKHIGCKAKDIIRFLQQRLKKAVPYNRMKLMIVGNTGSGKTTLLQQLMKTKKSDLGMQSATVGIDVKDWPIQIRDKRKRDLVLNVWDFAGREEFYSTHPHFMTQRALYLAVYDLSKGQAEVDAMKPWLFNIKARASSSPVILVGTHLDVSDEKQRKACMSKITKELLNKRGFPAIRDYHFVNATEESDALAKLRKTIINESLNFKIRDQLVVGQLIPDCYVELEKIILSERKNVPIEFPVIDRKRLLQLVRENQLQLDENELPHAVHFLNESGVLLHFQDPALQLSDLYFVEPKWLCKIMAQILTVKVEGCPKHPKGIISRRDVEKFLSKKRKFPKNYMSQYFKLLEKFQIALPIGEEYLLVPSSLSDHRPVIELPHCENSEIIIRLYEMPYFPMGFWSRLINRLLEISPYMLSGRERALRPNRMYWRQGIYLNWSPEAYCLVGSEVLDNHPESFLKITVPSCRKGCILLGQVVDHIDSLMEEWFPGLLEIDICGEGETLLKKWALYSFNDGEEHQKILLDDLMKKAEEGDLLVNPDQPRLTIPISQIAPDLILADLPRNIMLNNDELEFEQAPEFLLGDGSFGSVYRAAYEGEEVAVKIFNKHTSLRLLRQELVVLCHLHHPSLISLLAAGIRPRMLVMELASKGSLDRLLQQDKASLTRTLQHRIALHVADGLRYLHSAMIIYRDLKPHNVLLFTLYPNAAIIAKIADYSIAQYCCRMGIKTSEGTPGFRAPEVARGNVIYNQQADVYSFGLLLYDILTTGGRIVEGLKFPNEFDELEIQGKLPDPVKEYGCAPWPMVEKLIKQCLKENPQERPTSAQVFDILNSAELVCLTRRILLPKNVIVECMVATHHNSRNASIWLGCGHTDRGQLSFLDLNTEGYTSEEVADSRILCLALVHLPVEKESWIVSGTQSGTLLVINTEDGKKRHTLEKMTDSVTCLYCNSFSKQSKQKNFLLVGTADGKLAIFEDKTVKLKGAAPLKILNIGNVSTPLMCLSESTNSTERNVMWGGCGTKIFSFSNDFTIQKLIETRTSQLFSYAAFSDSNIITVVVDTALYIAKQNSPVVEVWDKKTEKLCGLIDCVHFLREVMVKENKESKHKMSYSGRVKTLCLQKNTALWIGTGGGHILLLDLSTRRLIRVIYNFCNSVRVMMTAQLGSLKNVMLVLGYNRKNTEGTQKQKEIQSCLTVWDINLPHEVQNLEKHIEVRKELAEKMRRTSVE

| Compound | IC50 | LRRK2 pIC50 |
| --- | --- | --- |
| CC(C1CC1)n1cc(NC(=O)c2csc(-c3cn[nH]c3)n2)cn1 (single isomer, unassigned) [Example 2-1, (R)- or (S)—N-(1-(1-cyclopropylethyl)-1H-pyrazol-4-yl)-2-(1H-pyrazol-4-yl)thiazole-4-carboxamide] | 32.4 nM | – |
| CC(C1CC1)n1cc(NC(=O)c2csc(-c3cn[nH]c3)n2)cn1 (single isomer, unassigned) [Example 2-2, (S)- or (R)—N-(1-(1-cyclopropylethyl)-1H-pyrazol-4-yl)-2-(1H-pyrazol-4-yl)thiazole-4-carboxamide] | 38 nM | – |
| Cc1nn(C(C)C2CC2)cc1NC(=O)c1csc(-c2cn[nH]c2)n1 (single isomer, unassigned) [Example 2-3, (R)- or (S)-N-{1-[1-cyclopropylethyl]-3-methyl-1H-pyrazol-4-yl}-2-(1H-pyrazol-4-yl)-1,3-thiazole-4-carboxamide] | – | 6.99 |
| Cc1nn(C(C)C2CC2)cc1NC(=O)c1csc(-c2cn[nH]c2)n1 (single isomer, unassigned) [Example 2-4, (S)- or (R)-N-{1-[1-cyclopropylethyl]-3-methyl-1H-pyrazol-4-yl}-2-(1H-pyrazol-4-yl)-1,3-thiazole-4-carboxamide] | – | 6.82 |
| CC(C1CC1)n1ncc(NC(=O)c2csc(-c3cn[nH]c3)n2)c1C(F)F (single isomer, unassigned) [Example 3-4, (R)- or (S)—N-(1-(1-cyclopropylethyl)-5-(difluoromethyl)-1H-pyrazol-4-yl)-2-(1H-pyrazol-4-yl)thiazole-4-carboxamide] | – | 5.69 |
| CC(C1CC1)n1ncc(NC(=O)c2csc(-c3cn[nH]c3)n2)c1C(F)F (single isomer, unassigned) [Example 3-5, (S)- or (R)—N-(1-(1-cyclopropylethyl)-5-(difluoromethyl)-1H-pyrazol-4-yl)-2-(1H-pyrazol-4-yl)thiazole-4-carboxamide] | – | 5.92 |
| O=C(Nc1cnn(C2CCC2)c1)c1csc(-c2cn[nH]c2)n1 [Example 1-1, N-(1-Cyclobutyl-1H-pyrazol-4-yl)-2-(1H-pyrazol-4-yl)thiazole-4-carboxamide] | – | 8.01 |
| COc1nn(CC(F)(F)F)cc1NC(=O)c1csc(-c2cn[nH]c2)n1 [Example 1-2, N-(3-Methoxy-1-(2,2,2-trifluoroethyl)-1H-pyrazol-4-yl)-2-(1H-pyrazol-4-yl)thiazole-4-carboxamide] | – | 7.46 |
| Cc1nn(C2CCC2)cc1NC(=O)c1csc(-c2cn[nH]c2)n1 [Example 1-3, N-(1-Cyclobutyl-3-methyl-1H-pyrazol-4-yl)-2-(1H-pyrazol-4-yl)thiazole-4-carboxamide] | – | 7.83 |
| CNC(=O)c1nn(C)cc1NC(=O)c1csc(-c2cn[nH]c2)n1 [Example 1-4, N-[1-methyl-3-(methylcarba-moyl)-1H-pyrazol-4-yl]-2-(1H-pyrazol-4-yl)-1,3-thiazole-4-carboxamide] | – | 8.15 |
| Cc1nn(C(F)F)cc1NC(=O)c1csc(-c2cn[nH]c2)n1 [Example 1-5, N-[1-(difluoromethyl)-3-methyl-1H-pyrazol-4-yl]-2-(1H-pyrazol-4-yl)-1,3-thiazole-4-carboxamide] | – | 7.08 |
| O=C(Nc1cn(C2CC2)nc1C1CC1)c1csc(-c2cn[nH]c2)n1 [Example 1-6, N-(1,3-dicyclopropyl-1H-pyrazol-4-yl)-2-(1H-pyrazol-4-yl)-1,3-thiazole-4-carboxamide] | – | 7.84 |
| CC(C)n1cc(NC(=O)c2csc(-c3cn[nH]c3)n2)c(OCC(F)(F)F)n1 [Example 1-7, N-[1-(1-methylethyl)-3-(2,2,2-trifluoroethoxy)-1H-pyrazol-4-yl]-2-(1H-pyrazol-4-yl)-1,3-thiazole-4-carboxamide] | – | 7.17 |
| O=C(Nc1cnn(-c2ccncc2)c1)c1csc(-c2cn[nH]c2)n1 [Example 1-8, 2-(1H-pyrazol-4-yl)-N-(1-pyridin-4-yl-1H-pyrazol-4-yl)-1,3-thiazole-4-carboxamide] | – | 8.07 |
| Cn1cc(NC(=O)c2csc(-c3cn[nH]c3)n2)c(-c2ccncc2)n1 [Example 1-9, N-(1-methyl-3-pyridin-4-yl-1H-pyrazol-4-yl)-2-(1H-pyrazol-4-yl)-1,3-thiazole-4-carboxamide] | – | 7.09 |
| CCn1cc(NC(=O)c2csc(-c3cn[nH]c3)n2)c(C#N)n1 [Example 1-10, N-(3-cyano-1-ethyl-1H-pyrazol-4-yl)-2-(1H-pyrazol-4-yl)-1,3-thiazole-4-carboxamide] | – | 7.30 |
| Cn1cc(NC(=O)c2csc(-c3cn[nH]c3)n2)c(-c2ccc(F)cc2)n1 [Example 1-11, N-[3-(4-fluorophenyl)-1-methy1-1H-pyrazol-4-yl]-2-(1H-pyrazol-4-yl)-1,3-thiazole-4-carboxamide] | – | 7.90 |
| CCn1cc(NC(=O)c2csc(-c3cn[nH]c3)n2)c(-c2nnc3n2CCCC3)n1 [Example 1-12, N-[1-ethyl-3-(5,6,7,8-tetrahydro[1,2,4]triazolo[4,3-a]pyridin-3-yl)-1H-pyrazol-4-yl]-2-(1H-pyrazol-4-yl)-1,3-thiazole-4-carboxamide] | – | 7.53 |
| Cn1cc(NC(=O)c2csc(-c3cn[nH]c3)n2)c(C(N)=O)n1 [Example 1-13, N-(3-carbamoyl-1-methyl-1H-pyrazol-4-yl)-2-(1H-pyrazol-4-yl)-1,3-thiazole-4-carboxamide] | – | 8.17 |
| COc1nn(C)cc1NC(=O)c1csc(-c2cn[nH]c2)n1 [Example 1-14, N-(3-methoxy-1-methyl-1H-pyrazol-4-yl)-2-(1H-pyrazol-4-yl)-1,3-thiazole-4-carboxamide] | – | 7.13 |
| Cn1cc(NC(=O)c2csc(-c3cn[nH]c3)n2)c(C(F)F)n1 [Example 1-15, N-[3-(difluoromethyl)-1-methyl-1H-pyrazol-4-yl]-2-(1H-pyrazol-4-yl)-1,3-thiazole-4-carboxamide] | – | 7.79 |
| CC(C)Oc1nn(C)cc1NC(=O)c1csc(-c2cn[nH]c2)n1 [Example 1-16, N-[1-methyl-3-(1-methylethoxy)-1H-pyrazol-4-yl]-2-(1H-pyrazol-4-yl)-1,3-thiazole-4-carboxamide] | – | 7.43 |
| CC(C)(C)n1cc(NC(=O)c2csc(-c3cn[nH]c3)n2)cn1 [Example 1-17, N-(1-tert-butyl-1H-pyrazol-4-yl)-2-(1H-pyrazol-4-yl)-1,3-thiazole-4-carboxamide] | – | 7.22 |
| O=C(Nc1cnn(C2CC2)c1)c1coc(-c2cn[nH]c2)n1 [Example 1-18, N-(1-cyclopropyl-1H-pyrazol-4-yl)-2-(1H-pyrazol-4-yl)-1,3-oxazole-4-carboxamide] | – | 6.75 |
| COC(=O)c1nn(C)cc1NC(=O)c1csc(-c2cn[nH]c2)n1 [Example 1-19, methyl 1-methyl-4-({[2-(1H-pyrazol-4-yl)-1,3-thiazol-4-yl]carbonyl}amino)-1H-pyrazole-3-carboxylate] | – | 8.66 |
| CC(C)n1cc(NC(=O)c2csc(-c3cn[nH]c3)n2)cn1 [Example 1-20, N-[1-(1-methylethyl)-1H-pyrazol-4-yl]-2-(1H-pyrazol-4-yl)-1,3-thiazole-4-carboxamide] | – | 7.68 |
| O=C(Nc1cnn(-c2ccncc2)c1)c1coc(-c2cn[nH]c2)n1 [Example 1-21, 2-(1H-pyrazol-4-yl)-N-(1-pyridin-4-yl-1H-pyrazol-4-yl)-1,3-oxazole-4-carboxamide] | – | 7.18 |

— US20240174679A1, “HETEROAROYL AMIDES AS LRRK2 INHIBITORS, PHARMACEUTICAL COMPOSITIONS, AND USES THEREOF” (MERCK SHARP & DOHME LLC, priority 2021, published 2024)
